Laboratory results taken from ChEMBL document CHEMBL1201862, “PubChem BioAssay data set” (2004).
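Test compounds were applied to cells in 96-well plates for 48 hours at 5 doses. GI50 = concentration required for 50% inhibition of growth.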 Calls of active or inactive are those of the source. Cut-off read from the data, not from the text of the source: active = GI50 up to about 1.1 µM and inactive = higher.

Columns and labels:
Experiment in all cases: NCI tumour cell line growth inhibition, 48 h
HCT-15 = test system: HCT-15
HCT-116 = test system: HCT-116
SW-620 = test system: SW-620
HCC 2998 = test system: HCC 2998
UACC-62 = test system: UACC-62
HOP-92 = test system: HOP-92
LOX IMVI = test system: LOX IMVI
HL-60 = test system: HL-60
M14 = test system: M14
MCF7 = test system: MCF7
SNB-19 = test system: SNB-19
UACC-257 = test system: UACC-257
A549 = test system: A549
NCI-H23 = test system: NCI-H23
HT-29 = test system: HT-29
786-0 = test system: 786-0
OVCAR-3 = test system: OVCAR-3
OVCAR-5 = test system: OVCAR-5
OVCAR-8 = test system: OVCAR-8
MDA-MB-231 = test system: MDA-MB-231

| Structure (SMILES) | GI50 (HCT-15) [µM] | GI50 (HCT-116) | GI50 (SW-620) | GI50 (HCC 2998) | GI50 (UACC-62) | GI50 (HOP-92) | GI50 (LOX IMVI) | GI50 (HL-60) | GI50 (M14) | GI50 (MCF7) | GI50 (SNB-19) | GI50 (UACC-257) | GI50 (A549) | GI50 (NCI-H23) | GI50 (HT-29) | GI50 (786-0) | GI50 (OVCAR-3) | GI50 (OVCAR-5) | GI50 (OVCAR-8) | GI50 (MDA-MB-231) |
| --- | --- | --- | --- | --- | --- | --- | --- | --- | --- | --- | --- | --- | --- | --- | --- | --- | --- | --- | --- | --- |
| COc1ccccc1CNC(=O)[C@H](Cc1ccc(O)cn1)NC(C)=O | > 100 | > 100 µM (inactive) | > 100 µM (inactive) | > 100 µM (inactive) | > 100 µM (inactive) | 57.7 µM (inactive) | > 100 µM (inactive) | > 100 µM (inactive) | > 100 µM (inactive) | > 100 µM (inactive) | > 100 µM (inactive) | > 100 µM (inactive) | > 100 µM (inactive) | > 100 µM (inactive) | > 100 µM (inactive) | > 100 µM (inactive) | > 100 µM (inactive) | > 100 µM (inactive) | – | – |
| O=C1CC2CCN(C(=O)c3ccccc3)CC2CCN1 (stereo not given) | > 100 | > 100 µM (inactive) | > 100 µM (inactive) | > 100 µM (inactive) | > 100 µM (inactive) | > 100 µM (inactive) | > 100 µM (inactive) | > 100 µM (inactive) | > 100 µM (inactive) | – | > 100 µM (inactive) | > 100 µM (inactive) | > 100 µM (inactive) | > 100 µM (inactive) | > 100 µM (inactive) | > 100 µM (inactive) | > 100 µM (inactive) | > 100 µM (inactive) | > 100 µM (inactive) | – |
| COC(=O)c1cc(C#N)[nH]c1-c1cccs1 | 57.4 | > 100 µM (inactive) | > 100 µM (inactive) | > 100 µM (inactive) | 97.7 µM (inactive) | 30.8 µM (inactive) | – | – | > 100 µM (inactive) | – | > 100 µM (inactive) | > 100 µM (inactive) | > 100 µM (inactive) | 58.1 µM (inactive) | – | > 100 µM (inactive) | 56.5 µM (inactive) | > 100 µM (inactive) | > 100 µM (inactive) | 52.7 µM (inactive) |
| CSc1nc(C)c(CCCl)c(Cl)n1 | > 100 | 36.6 µM (inactive) | 42.6 µM (inactive) | > 100 µM (inactive) | 89.1 µM (inactive) | – | 29.6 µM (inactive) | – | 32.4 µM (inactive) | – | > 100 µM (inactive) | > 100 µM (inactive) | > 100 µM (inactive) | > 100 µM (inactive) | > 100 µM (inactive) | > 100 µM (inactive) | > 100 µM (inactive) | – | > 100 µM (inactive) | > 100 µM (inactive) |
| N#C[C@H]1C(=O)C(c2nc3ccccc3[nH]2)S[C@H]1c1ccccc1 (stereo not given in full) | 38 | 27.4 µM (inactive) | 32.5 µM (inactive) | 50 µM (inactive) | 15.3 µM (inactive) | 25.5 µM (inactive) | 42 µM (inactive) | 25.4 µM (inactive) | 33.3 µM (inactive) | 28.4 µM (inactive) | 45.4 µM (inactive) | 63.2 µM (inactive) | 45.4 µM (inactive) | 27.5 µM (inactive) | 32.2 µM (inactive) | 19.1 µM (inactive) | 31 µM (inactive) | 92.9 µM (inactive) | 43.2 µM (inactive) | – |
| O=C1Nc2ccccc2C(=O)O/C(Cc2ccccc2)=N\c2ccccc21 | > 100 | > 100 µM (inactive) | > 100 µM (inactive) | 82.8 µM (inactive) | > 100 µM (inactive) | – | > 100 µM (inactive) | > 100 µM (inactive) | > 100 µM (inactive) | > 100 µM (inactive) | > 100 µM (inactive) | 54.6 µM (inactive) | > 100 µM (inactive) | > 100 µM (inactive) | > 100 µM (inactive) | > 100 µM (inactive) | > 100 µM (inactive) | > 100 µM (inactive) | > 100 µM (inactive) | – |
